“And” between values parts separate entries of the source, which are not always exact repeats. Equal entries are not always repeated. Inconclusive results and toxic doses are left out. The calls were made as follows: active = survival T/C of 150% or more; inactive = T/C below 125% in these data.
System: CD2F1 mice, L1210 leukemia ip, survival T/C
Assay: NCI In Vivo Anticancer Drug Screen. Data for tumor model L1210 Leukemia (intraperitoneal) in CD2F1 (CDF1) mice
Settings: higher = longer survival
Outline: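 Tumor-bearing mice (transplanted tumor) were split into treated and vehicle control groups, and the measured endpoint of each treated group was divided by that of its vehicle controls.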

[1] = endpoint: mean survival time, dose: 100.0 mg/kg/injection, schedule: Q04DX003 (ip), vehicle: saline with Tween-80
[2] = endpoint: mean survival time, dose: 200.0 mg/kg/injection, schedule: Q04DX003 (ip), vehicle: saline with Tween-80
[3] = endpoint: mean survival time, dose: 100.0 mg/kg/injection, schedule: Q01DX009 (ip), vehicle: saline with Tween-80
[4] = endpoint: mean survival time, dose: 400.0 mg/kg/injection, schedule: Q01DX009 (ip), vehicle: saline with Tween-80
[5] = endpoint: mean survival time, dose: 100.0 mg/kg/injection, schedule: Q01DX009 (ip), vehicle: saline
[6] = endpoint: mean survival time, dose: 100.0 mg/kg/injection, schedule: Q04DX003 (ip), vehicle: saline
[7] = endpoint: mean survival time, dose: 200.0 mg/kg/injection, schedule: Q01DX009 (ip), vehicle: saline
[8] = endpoint: mean survival time, dose: 50.0 mg/kg/injection, schedule: Q01DX009 (ip), vehicle: saline
[9] = endpoint: mean survival time, dose: 50.0 mg/kg/injection, schedule: Q01DX009 (ip), vehicle: saline with Tween-80
[10] = endpoint: mean survival time, dose: 200.0 mg/kg/injection, schedule: Q01DX009 (ip), vehicle: saline with Tween-80
[11] = endpoint: mean survival time, dose: 100.0 mg/kg/injection, schedule: Q01DX001 (ip), vehicle: Klucel (hydroxypropylcellulose) (HPC)
[12] = endpoint: mean survival time, dose: 200.0 mg/kg/injection, schedule: Q01DX001 (ip), vehicle: Klucel (hydroxypropylcellulose) (HPC)

Measured: T/C

CC(=O)Nc1nc(N)nc2nonc12
inactive: endpoint: mean survival time, dose: 12.5 mg/kg/injection, schedule: Q01DX005 (ip), vehicle: saline with Tween-80 100 % of control | endpoint: mean survival time, dose: 25.0 mg/kg/injection, schedule: Q01DX005 (ip), vehicle: saline with Tween-80 98 % of control | endpoint: mean survival time, dose: 50.0 mg/kg/injection, schedule: Q01DX005 (ip), vehicle: saline with Tween-80 100 % of control | endpoint: mean survival time, dose: 100.0 mg/kg/injection, schedule: Q01DX005 (ip), vehicle: saline with Tween-80 96 % of control | endpoint: mean survival time, dose: 200.0 mg/kg/injection, schedule: Q01DX005 (ip), vehicle: saline with Tween-80 93 % of control

Oc1ccc2ccccc2c1Cl
inactive: [1] 104 % of control | [2] 112 % of control | endpoint: mean survival time, dose: 400.0 mg/kg/injection, schedule: Q04DX003 (ip), vehicle: saline with Tween-80 108 % of control

CN(C)CCN(Cc1ccc(Cl)cc1)c1ccccn1
inactive: endpoint: mean survival time, dose: 3.13 mg/kg/injection, schedule: Q01DX009 (ip), vehicle: saline with Tween-80 95 % of control | endpoint: mean survival time, dose: 6.25 mg/kg/injection, schedule: Q01DX009 (ip), vehicle: saline with Tween-80 109 % of control

Cc1cccc2c1CCC(OC(=O)c1cc([N+](=O)[O-])cc([N+](=O)[O-])c1)C2 (stereo unspecified)
inactive: [3] 92 % of control | endpoint: mean survival time, dose: 100.0 mg/kg/injection, schedule: Q04DX003 (ip), vehicle: acetone 98 % of control | endpoint: mean survival time, dose: 200.0 mg/kg/injection, schedule: Q04DX003 (ip), vehicle: acetone 108 % of control | [2] 89 % of control | [4] 97 % of control | endpoint: mean survival time, dose: 400.0 mg/kg/injection, schedule: Q04DX003 (ip), vehicle: acetone 101 % of control

N#CN1CCOCC1
inactive: [5] 101 % of control | [6] 91 % of control | [7] 110 % of control | endpoint: mean survival time, dose: 200.0 mg/kg/injection, schedule: Q04DX003 (ip), vehicle: saline 96 % of control

C=C(C)CC#N
inactive: [8] 92 % of control | [5] 95 % of control | [7] 100 % of control

CCCCCCCS(=O)CCCl (stereo unspecified)
inactive: endpoint: mean survival time, dose: 100.0 mg/kg/injection, schedule: Q04DX002 (ip), vehicle: saline with Tween-80 96 % of control | endpoint: mean survival time, dose: 200.0 mg/kg/injection, schedule: Q04DX002 (ip), vehicle: saline with Tween-80 108 % of control

NC(=S)N/N=C\c1ncccc1OCc1cccc(N)c1
inactive: endpoint: mean survival time, dose: 12.5 mg/kg/injection, schedule: Q01DX009 (ip), vehicle: distilled water + Tween-80 104 % of control | endpoint: mean survival time, dose: 12.5 mg/kg/injection, schedule: Q01DX009 (ip), vehicle: saline with Tween-80 100 % of control | endpoint: mean survival time, dose: 25.0 mg/kg/injection, schedule: Q01DX009 (ip), vehicle: distilled water + Tween-80 113 % of control and 104 % of control | endpoint: mean survival time, dose: 25.0 mg/kg/injection, schedule: Q01DX009 (ip), vehicle: saline with Tween-80 116 % of control and 100 % of control and 107 % of control | endpoint: mean survival time, dose: 50.0 mg/kg/injection, schedule: Q01DX009 (ip), vehicle: distilled water + Tween-80 119 % of control and 111 % of control | [9] 101 % of control and 103 % of control and 110 % of control | endpoint: mean survival time, dose: 100.0 mg/kg/injection, schedule: Q01DX009 (ip), vehicle: distilled water + Tween-80 113 % of control and 119 % of control | [3] 117 % of control and 100 % of control and 105 % of control | endpoint: mean survival time, dose: 200.0 mg/kg/injection, schedule: Q01DX009 (ip), vehicle: distilled water + Tween-80 122 % of control | [10] 114 % of control and 117 % of control and 108 % of control | endpoint: mean survival time, dose: 400.0 mg/kg/injection, schedule: Q01DX009 (ip), vehicle: distilled water + Tween-80 117 % of control | [4] 115 % of control and 108 % of control | endpoint: median survival time, dose: 50.0 mg/kg/injection, schedule: Q01DX009 (ip), vehicle: distilled water + Tween-80 109 % of control | endpoint: median survival time, dose: 100.0 mg/kg/injection, schedule: Q01DX009 (ip), vehicle: distilled water + Tween-80 115 % of control | endpoint: median survival time, dose: 200.0 mg/kg/injection, schedule: Q01DX009 (ip), vehicle: distilled water + Tween-80 118 % of control | endpoint: median survival time, dose: 400.0 mg/kg/injection, schedule: Q01DX009 (ip), vehicle: distilled water + Tween-80 124 % of control

CCOC(=O)c1c(C)oc2cc3c(C(=O)OCC)c(C)oc3cc12
inactive: [11] 90 % of control | [12] 95 % of control | endpoint: mean survival time, dose: 400.0 mg/kg/injection, schedule: Q01DX001 (ip), vehicle: Klucel (hydroxypropylcellulose) (HPC) 93 % of control

CC[C@@]1(O)C[C@H](OC2CC(N(C)C)C(OC3CC(O)C(OC4CC(O)C(O)C(C)O4)C(C)O3)C(C)O2)c2c(cc3c(c2O)C(=O)c2c(O)ccc(O)c2C3=O)[C@H]1C(=O)OC (stereo partly specified)
inactive: endpoint: mean survival time, dose: 3.8 mg/kg/injection, schedule: Q01DX001 (ip), vehicle: other 117 % of control | endpoint: mean survival time, dose: 7.5 mg/kg/injection, schedule: Q01DX001 (ip), vehicle: other 120 % of control | endpoint: mean survival time, dose: 15.0 mg/kg/injection, schedule: Q01DX001 (ip), vehicle: other 96 % of control

[Cl][Pt+2][Cl].[NH-]c1ccc(F)cc1F.[NH-]c1ccc(F)cc1F
inactive: endpoint: mean survival time, dose: 12.5 mg/kg/injection, schedule: Q04DX003 (ip), vehicle: distilled water + Tween-80 114 % of control and 104 % of control and 110 % of control | endpoint: mean survival time, dose: 25.0 mg/kg/injection, schedule: Q04DX003 (ip), vehicle: distilled water + Tween-80 115 % of control and 117 % of control and 96 % of control | endpoint: mean survival time, dose: 50.0 mg/kg/injection, schedule: Q04DX003 (ip), vehicle: distilled water + Tween-80 116 % of control and 105 % of control | endpoint: mean survival time, dose: 100.0 mg/kg/injection, schedule: Q04DX003 (ip), vehicle: distilled water + Tween-80 122 % of control and 88 % of control and 94 % of control

Cc1ccc(/C=C/C(=O)/C=C/c2ccc(C)o2)o1
inactive: endpoint: median survival time, dose: 25.0 mg/kg/injection, schedule: Q01DX005 (ip), vehicle: saline with Tween-80 98 % of control | endpoint: median survival time, dose: 50.0 mg/kg/injection, schedule: Q01DX005 (ip), vehicle: saline with Tween-80 92 % of control | endpoint: median survival time, dose: 100.0 mg/kg/injection, schedule: Q01DX005 (ip), vehicle: saline with Tween-80 100 % of control | endpoint: median survival time, dose: 200.0 mg/kg/injection, schedule: Q01DX005 (ip), vehicle: saline with Tween-80 103 % of control | endpoint: median survival time, dose: 400.0 mg/kg/injection, schedule: Q01DX005 (ip), vehicle: saline with Tween-80 98 % of control

CCN(CC)C(=O)N1CC2CCC(C1)N2C
inactive: [6] 100 % of control

CSc1nc(C)cc(Cl)n1
inactive: [9] 94 % of control | [3] 92 % of control | [1] 103 % of control | [10] 95 % of control | [2] 97 % of control

N/C(=N/N=C/c1ccco1)N[N+](=O)[O-]
inactive: endpoint: mean survival time, dose: 50.0 mg/kg/injection, schedule: Q01DX001 (ip), vehicle: Klucel (hydroxypropylcellulose) (HPC) 97 % of control | [11] 94 % of control | [12] 97 % of control

CC(=O)[O][Hg][c]1cc(-c2ccc(N=Nc3c(S(=O)(=O)O)cc4cccc(N)c4c3O)cc2)ccc1N=Nc1c(S(=O)(=O)O)cc2cccc(N)c2c1O
inactive: endpoint: mean survival time, dose: 6.25 mg/kg/injection, schedule: Q04DX003 (ip), vehicle: saline with Tween-80 98 % of control | endpoint: mean survival time, dose: 12.5 mg/kg/injection, schedule: Q04DX003 (ip), vehicle: saline with Tween-80 96 % of control | endpoint: mean survival time, dose: 25.0 mg/kg/injection, schedule: Q04DX003 (ip), vehicle: saline with Tween-80 104 % of control

FC(F)(F)c1nc2nccnc2[nH]1
inactive: [8] 95 % of control | [5] 91 % of control | [7] 93 % of control
